Data reported in patent US20110288086A1, “POLYCYCLIC QUINAZOLINES, PREPARATION THEREOF, AND USE THEREOF” (priority 2010, published 2011).
Counter-ions that a name gives are not always drawn.

How the values were obtained:
EGFR tyrosine kinase = EGFR tyrosine kinase (Homo sapiens, UniProt P00533); experiment: EGFR tyrosine kinase inhibition in vitro (Invitrogen EGFR inhibitor screening kit PV3193)
Text: The inhibitory activities of EGFR tyrosine kinase in vitro
Erlotinib hydrochloride was used as a positive control drug.

[1] = test system: MDA-MB-435s human breast carcinoma cells; experiment: Tumor cell inhibition ratio, CCK-8 kit, MDA-MB-435s; settings: read-out: Antiproliferative effect (inhibition ratio) 435s
Text: (§1) The inhibitory activities of the compounds on tumor cells in vitro

aurora kinase B = biological target: T1, aurora kinase B (Homo sapiens, UniProt Q96GD4); experiment: Aurora kinase B inhibition in vitro (Invitrogen aurora kinase screening kit PV3174); format: biochemical
T1 construct: purchased Invitrogen PV3174

[2] = test system: PANC-1 human pancreatic cancer cells; experiment: Tumor cell inhibition ratio, CCK-8 kit, PANC-1; settings: PANC-1, read-out: Antiproliferative effect (inhibition ratio) PANC-1
Text: as §1

[3] = test system: Hut78 T-Lymphocytic Leukemia cells; experiment: Tumor cell inhibition ratio, CCK-8 kit, Hut78; settings: Homo sapiens, HuT78, read-out: Antiproliferative effect (inhibition ratio) Hut-78
Text: as §1

[4] = test system: A549 human lung cancer cells; experiment: Tumor cell inhibition ratio, CCK-8 kit, A549; settings: A549, read-out: Antiproliferative effect (inhibition ratio) A549
Text: as §1

[5] = test system: K562 human chronicity marrow leukemic cells; experiment: Tumor cell inhibition ratio, CCK-8 kit, K562; settings: K562, read-out: Antiproliferative effect (inhibition ratio) K562
Text: as §1

[6] = test system: Jurkat E6-1 human T-cell lymphoma; experiment: Tumor cell inhibition ratio, CCK-8 kit, Jurkat E6-1; settings: Jurkat E6.1, read-out: Antiproliferative effect (inhibition ratio) E6-1
Text: as §1

[7] = test system: Colo320 human rectal cancer cells; experiment: Tumor cell inhibition ratio, CCK-8 kit, Colo320; settings: COLO 320, read-out: Antiproliferative effect (inhibition ratio) Colo320
Text: as §1

[8] = test system: Hep3B2.1-7 human hepatoma carcinoma cells; experiment: Tumor cell inhibition ratio, CCK-8 kit, Hep3B; settings: read-out: Antiproliferative effect (inhibition ratio) Hep3B
Text: as §1

[9] = test system: PC-3 human carcinoma of prostate; experiment: Tumor cell inhibition ratio, CCK-8 kit, PC-3; settings: read-out: Antiproliferative effect (inhibition ratio) PC-3
Text: as §1

Sequence of EGFR tyrosine kinase (P00533 25-1210): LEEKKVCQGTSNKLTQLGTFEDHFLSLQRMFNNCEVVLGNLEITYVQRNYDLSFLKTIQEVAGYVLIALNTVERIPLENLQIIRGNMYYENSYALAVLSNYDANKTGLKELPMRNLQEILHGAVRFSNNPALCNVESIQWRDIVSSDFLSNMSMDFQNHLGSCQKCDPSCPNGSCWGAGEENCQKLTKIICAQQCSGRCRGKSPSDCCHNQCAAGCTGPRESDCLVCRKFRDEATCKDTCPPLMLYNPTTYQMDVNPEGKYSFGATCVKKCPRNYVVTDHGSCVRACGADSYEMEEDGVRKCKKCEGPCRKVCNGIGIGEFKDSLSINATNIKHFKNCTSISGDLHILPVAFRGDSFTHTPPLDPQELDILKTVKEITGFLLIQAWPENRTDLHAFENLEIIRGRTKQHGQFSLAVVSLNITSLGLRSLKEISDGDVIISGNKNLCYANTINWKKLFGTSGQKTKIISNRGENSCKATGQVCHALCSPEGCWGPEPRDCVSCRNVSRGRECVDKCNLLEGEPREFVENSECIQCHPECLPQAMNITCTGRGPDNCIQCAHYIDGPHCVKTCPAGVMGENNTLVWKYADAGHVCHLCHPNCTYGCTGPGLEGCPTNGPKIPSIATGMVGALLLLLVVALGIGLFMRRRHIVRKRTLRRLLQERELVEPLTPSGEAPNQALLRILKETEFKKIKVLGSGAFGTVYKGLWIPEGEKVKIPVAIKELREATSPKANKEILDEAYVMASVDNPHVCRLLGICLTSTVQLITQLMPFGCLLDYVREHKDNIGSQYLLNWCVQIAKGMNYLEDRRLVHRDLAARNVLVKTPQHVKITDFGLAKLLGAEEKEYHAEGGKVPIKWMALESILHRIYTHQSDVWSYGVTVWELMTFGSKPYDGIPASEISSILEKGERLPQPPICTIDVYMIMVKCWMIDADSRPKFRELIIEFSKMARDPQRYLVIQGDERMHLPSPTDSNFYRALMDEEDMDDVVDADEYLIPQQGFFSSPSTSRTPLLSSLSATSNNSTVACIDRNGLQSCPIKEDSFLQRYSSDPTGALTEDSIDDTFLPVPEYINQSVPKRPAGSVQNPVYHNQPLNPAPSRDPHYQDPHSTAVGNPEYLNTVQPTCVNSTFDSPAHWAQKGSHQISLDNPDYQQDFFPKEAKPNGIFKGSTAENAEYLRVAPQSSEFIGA
T1 sequence (Q96GD4 whole entry): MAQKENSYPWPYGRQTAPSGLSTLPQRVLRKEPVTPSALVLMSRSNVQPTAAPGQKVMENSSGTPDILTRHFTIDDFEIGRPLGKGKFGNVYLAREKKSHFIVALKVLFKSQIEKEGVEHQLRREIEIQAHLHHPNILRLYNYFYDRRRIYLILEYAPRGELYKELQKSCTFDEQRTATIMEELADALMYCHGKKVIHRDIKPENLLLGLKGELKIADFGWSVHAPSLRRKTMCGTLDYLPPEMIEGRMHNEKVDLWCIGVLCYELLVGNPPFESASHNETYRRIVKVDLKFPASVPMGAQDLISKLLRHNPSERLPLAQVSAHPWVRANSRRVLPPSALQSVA

Row | The inhibition ratio of the compound on EGFR(%) (EGFR tyrosine kinase; 40 μM) | The inhibition ratio of the compound on EGFR(%) (EGFR tyrosine kinase; 200 μM) | Compound | inhibition at 10 µM [1] [%] | inhibition at 100 µM [1] [%] | inhibition at 10 µM [2] [%] | inhibition at 100 µM [2] [%] | inhibition at 10 µM [3] [%] | inhibition at 100 µM [3] [%] | inhibition at 10 µM [4] [%] | inhibition at 100 µM [4] [%] | inhibition at 10 µM [5] [%] | inhibition at 100 µM [5] [%] | inhibition at 10 µM [6] [%] | inhibition at 100 µM [6] [%] | inhibition at 10 µM [7] [%] | inhibition at 100 µM [7] [%] | inhibition at 10 µM [8] [%] | inhibition at 100 µM [8] [%] | inhibition at 10 µM [9] [%] | inhibition at 100 µM [9] [%] | further results
1 | 57.6 | 91.5 | COCCOc1cc2c(cc1OCCOC)C1=Nc3cccc(Cl)c3CN1C=N2.Cl [Compound V-1, 9-chloro-2,3-bis(2-methoxyethoxy)-8H-quinazolino[4,3-b]quinazoline hydrochloride monohydrate] | 60.9 | 91.2 | 35.7 | 78.1 | 16.1 | 64.5 | 40.5 | 81.4 | 40.7 | 87 | 55 | 81.7 | 55.1 | 81 | 50.4 | 89.3 | 51.6 | 62.4 | The inhibition ratio of the compound on Aurora B(%) (aurora kinase B; 40 μM): 47.6%; The inhibition ratio of the compound on Aurora B(%) (aurora kinase B; 200 μM): 88.6%
2 | 49.5 | 81.6 | COCCOc1cc2c(cc1OCCOC)C1=Nc3cccc(F)c3CN1C=N2 [Compound V-3, 9-fluoro-2,3-bis(2-methoxyethoxy)-8H-quinazolino[4,3-b]quinazoline mesylate] | 3.38 | 84.1 | 30.9 | 75.4 | 44.1 | 84.1 | 44.6 | 76.2 | 43.1 | 88.8 | 42 | 78 | 34.8 | 79 | 42.3 | 80.7 | 34 | 87 | The inhibition ratio of the compound on Aurora B(%) (aurora kinase B; 40 μM): 39.5%; The inhibition ratio of the compound on Aurora B(%) (aurora kinase B; 200 μM): 83.6%
3 | 48.7 | 93.2 | C#Cc1cccc2c1CN1C=Nc3cc(OCCOC)c(OCCOC)cc3C1=N2.Cl [Compound V-4, 9-ethynyl-2,3-bis(2-methoxyethoxy)-8H-quinazolino[4,3-b]quinazoline hydrochloride trihydrate] | 31.3 | 92.6 | 39.7 | 85.9 | 44.1 | 85 | 48.6 | 78.7 | 31.4 | 87.6 | 6.85 | 19.8 | 48.9 | 83.4 | 33.5 | 79 | 22.2 | 62.7 | The inhibition ratio of the compound on Aurora B(%) (aurora kinase B; 40 μM): 38.7%; The inhibition ratio of the compound on Aurora B(%) (aurora kinase B; 200 μM): 91.5%
4 | – | – | COCCOc1cc2c(cc1OCCOC)C1=Nc3cc(CO)cc(N)c3CN1C=N2 [Compound V-21, 9-amino-11-hydroxymethyl-2,3-bis(2-methoxyethoxy)-8H-quinazolino[4,3-b]quinazoline] | 67 | 74.9 | 52.7 | 89.4 | 10.3 | 52.7 | 45.3 | 78 | 26.9 | 81.6 | 43.5 | 90.3 | 31.8 | 87 | 21.8 | 86.3 | 27.6 | 62.6 | –
5 | – | – | COc1cc2c(cc1OCCCN1CCOCC1)C1=Nc3ccc(F)c(Cl)c3CN1C=N2 [Compound V-23, 4-(3-((9-chloro-10-fluoro-3-methoxy-8H-quinazolino[4,3-b]quinazoline-2-yl)oxy)propyl)morpholine di-p-toluenesulfonate] | 20.7 | 52.2 | 21.5 | 98.8 | 42 | 99.8 | 10.4 | 22.5 | 58.7 | 73.4 | 56.3 | 77.5 | 52.3 | 99.5 | 27.1 | 48.7 | 30.7 | 97.6 | –
6 | – | – | COc1cc2c(cc1OCCCN1CCNCC1)C1=Nc3cccc(F)c3CN1C=N2 [Compound V-25, 9-fluoro-3-methoxy-2-(3-(piperazinyl-1-yl)propoxy)-8H-quinazolino[4,3-b]quinazoline] | 20.4 | 77 | 44.2 | 88.6 | 19 | 21.9 | 47 | 79.3 | 44.1 | 82.8 | 31.1 | 81.3 | 33.5 | 79.2 | 21.3 | 64.7 | 53.4 | 64.4 | –
7 | – | – | C#Cc1cccc2c1CN1C=Nc3cc(OC)c(OCCCN4CCOCC4)cc3C1=N2 [Compound V-26, 4-(3-((9-ethynyl-3-methoxy-8H-quinazolino[4,3-b]quinazoline-2-yl)oxy)propyl)morpholine] | 38 | 71.4 | 40.7 | 76.6 | 32.1 | 72.4 | 27.7 | 93.6 | 4.29 | 11.7 | 44.6 | 85.4 | 32.1 | 81.4 | 28.4 | 89.5 | 5.86 | 30.3 | –
8 | – | – | COc1cc2c(cc1OCCCN1CCOCC1)C1=Nc3cccc(C#N)c3CN1C=N2 [Compound V-27, 3-methoxy-2-(3-morpholinylpropoxy)-8H-quinazolino[4,3-b]quinazoline-9-nitrile] | 12 | 79.7 | 41.8 | 99.8 | 65.6 | 95.9 | 39.8 | 80 | 22.4 | 62.2 | 24 | 75.4 | 34.5 | 84.8 | 2.44 | 67.3 | 25.2 | 84 | –
